Results as given in ChEMBL document CHEMBL1153227, “2,3,5-Trisubstituted pyridines as selective AKT inhibitors. Part II: Improved drug-like properties and kinase selectivity from azaindazoles” (Bioorg Med Chem Lett, 2010).
Values after ≈ are worked out from the molar mass of the structure shown. Active and inactive are the calls of the source. No cut-off for these calls is given here.

Legend:
BT-474 = test: Cytotoxicity against human BT474 cells; type: functional, cell-based
Cytochrome P450 3A4 = Cytochrome P450 3A4 (Homo sapiens, UniProt P08684); test: Inhibition of CYP3A4; type: ADME
Chain of Cytochrome P450 3A4 (P08684 whole entry): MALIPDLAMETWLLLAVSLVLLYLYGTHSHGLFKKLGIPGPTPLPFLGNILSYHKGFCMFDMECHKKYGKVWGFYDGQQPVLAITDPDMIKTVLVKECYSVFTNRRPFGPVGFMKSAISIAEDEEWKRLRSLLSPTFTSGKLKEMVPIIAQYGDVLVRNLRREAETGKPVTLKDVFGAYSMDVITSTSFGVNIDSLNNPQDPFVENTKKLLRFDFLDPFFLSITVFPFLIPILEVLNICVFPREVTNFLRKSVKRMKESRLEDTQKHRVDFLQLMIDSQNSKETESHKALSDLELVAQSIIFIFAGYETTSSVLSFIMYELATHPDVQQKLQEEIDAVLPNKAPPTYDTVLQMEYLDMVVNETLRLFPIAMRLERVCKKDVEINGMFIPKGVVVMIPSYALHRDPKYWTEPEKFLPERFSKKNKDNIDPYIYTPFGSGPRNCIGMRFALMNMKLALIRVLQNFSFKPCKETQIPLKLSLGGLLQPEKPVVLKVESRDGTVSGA

[1] = target: RAC-alpha serine/threonine-protein kinase (Homo sapiens, UniProt P31749); test: Inhibition of AKT1
Chain of RAC-alpha serine/threonine-protein kinase (P31749 whole entry): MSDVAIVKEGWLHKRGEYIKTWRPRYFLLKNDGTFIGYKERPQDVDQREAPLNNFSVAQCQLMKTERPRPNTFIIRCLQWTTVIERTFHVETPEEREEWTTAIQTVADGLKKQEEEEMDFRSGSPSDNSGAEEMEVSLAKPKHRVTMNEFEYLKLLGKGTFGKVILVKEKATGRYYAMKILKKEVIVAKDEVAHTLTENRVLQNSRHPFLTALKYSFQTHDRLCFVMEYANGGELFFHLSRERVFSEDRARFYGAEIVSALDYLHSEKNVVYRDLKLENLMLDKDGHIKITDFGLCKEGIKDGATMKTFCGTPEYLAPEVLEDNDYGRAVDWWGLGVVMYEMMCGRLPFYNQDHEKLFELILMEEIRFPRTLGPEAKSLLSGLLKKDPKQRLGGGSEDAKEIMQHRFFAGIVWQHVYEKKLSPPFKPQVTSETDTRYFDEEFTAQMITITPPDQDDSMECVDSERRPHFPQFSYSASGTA

[2] = Solubility of the compound; type: physicochemical
HFF = test: Cytotoxicity against HFF cells; type: cell-based; conditions: Homo sapiens
LNCaP = test: Cytotoxicity against human LNCAP cells; type: functional, cell-based
[3] = Protein binding in SCID mouse plasma; type: ADME, cell-free; conditions: read-out: PPB (converted)
Mus musculus [4] = test: Inhibition of GSK3-beta phosphorylation in human BT474 cell xenografted SCID mouse at 50 mg/kg, ip; type: functional; conditions: BT-474, ip, route intraperitoneal
[5] = target: RAC-beta serine/threonine-protein kinase (Homo sapiens, UniProt P31751); test: Inhibition of AKT2
Chain of RAC-beta serine/threonine-protein kinase (P31751 whole entry): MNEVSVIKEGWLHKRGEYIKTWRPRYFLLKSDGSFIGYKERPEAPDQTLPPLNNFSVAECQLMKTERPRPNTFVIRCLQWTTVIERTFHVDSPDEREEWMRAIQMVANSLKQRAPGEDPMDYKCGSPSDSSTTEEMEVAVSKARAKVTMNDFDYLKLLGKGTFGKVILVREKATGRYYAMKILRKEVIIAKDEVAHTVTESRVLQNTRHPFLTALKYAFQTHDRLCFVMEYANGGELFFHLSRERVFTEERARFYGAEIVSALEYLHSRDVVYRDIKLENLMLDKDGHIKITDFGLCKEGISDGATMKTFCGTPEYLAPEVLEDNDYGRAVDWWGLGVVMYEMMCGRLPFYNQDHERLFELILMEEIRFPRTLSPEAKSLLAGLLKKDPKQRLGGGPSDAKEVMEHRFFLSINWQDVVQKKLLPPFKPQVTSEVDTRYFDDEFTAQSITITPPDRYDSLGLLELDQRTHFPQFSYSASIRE

Mus musculus [6] = test: Inhibition of GSK3-beta phosphorylation in human BT474 cell xenografted SCID mouse at 12.5 mg/kg, ip; type: functional, organism-based; design: dose 12.5 mg/kg; conditions: BT-474
[7] = Drug level in tumor of human BT474 cells xenografted in SCID mouse at 50 mg/kg, ip; type: ADME, organism-based, Neoplasm, BT-474; design: dose 50 mg/kg, route intraperitoneal; conditions: in vivo
Mus musculus [8] = test: Inhibition of GSK3-beta phosphorylation in human BT474 cell xenografted SCID mouse at 25 mg/kg, ip; type: functional, organism-based; design: dose 25 mg/kg; conditions: BT-474
[9] = target: RAC-gamma serine/threonine-protein kinase (Homo sapiens, UniProt Q9Y243); test: Inhibition of AKT3
Chain of RAC-gamma serine/threonine-protein kinase (Q9Y243 whole entry): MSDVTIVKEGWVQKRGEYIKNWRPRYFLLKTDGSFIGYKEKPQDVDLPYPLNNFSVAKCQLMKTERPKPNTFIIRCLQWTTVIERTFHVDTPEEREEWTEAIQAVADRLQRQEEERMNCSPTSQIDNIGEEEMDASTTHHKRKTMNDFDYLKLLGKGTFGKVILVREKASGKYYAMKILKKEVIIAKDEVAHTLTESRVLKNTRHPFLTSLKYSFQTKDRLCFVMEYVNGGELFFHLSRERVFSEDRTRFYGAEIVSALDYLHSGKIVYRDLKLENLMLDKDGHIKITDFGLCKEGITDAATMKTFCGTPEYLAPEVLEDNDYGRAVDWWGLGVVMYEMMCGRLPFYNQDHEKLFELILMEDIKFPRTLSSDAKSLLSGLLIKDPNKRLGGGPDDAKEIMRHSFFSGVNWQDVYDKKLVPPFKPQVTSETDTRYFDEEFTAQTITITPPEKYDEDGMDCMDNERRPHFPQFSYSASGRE

[10] = target: Ribosomal protein S6 kinase beta-1 (Homo sapiens, UniProt P23443); test: Inhibition of P70S6K
Chain of Ribosomal protein S6 kinase beta-1 (P23443 whole entry): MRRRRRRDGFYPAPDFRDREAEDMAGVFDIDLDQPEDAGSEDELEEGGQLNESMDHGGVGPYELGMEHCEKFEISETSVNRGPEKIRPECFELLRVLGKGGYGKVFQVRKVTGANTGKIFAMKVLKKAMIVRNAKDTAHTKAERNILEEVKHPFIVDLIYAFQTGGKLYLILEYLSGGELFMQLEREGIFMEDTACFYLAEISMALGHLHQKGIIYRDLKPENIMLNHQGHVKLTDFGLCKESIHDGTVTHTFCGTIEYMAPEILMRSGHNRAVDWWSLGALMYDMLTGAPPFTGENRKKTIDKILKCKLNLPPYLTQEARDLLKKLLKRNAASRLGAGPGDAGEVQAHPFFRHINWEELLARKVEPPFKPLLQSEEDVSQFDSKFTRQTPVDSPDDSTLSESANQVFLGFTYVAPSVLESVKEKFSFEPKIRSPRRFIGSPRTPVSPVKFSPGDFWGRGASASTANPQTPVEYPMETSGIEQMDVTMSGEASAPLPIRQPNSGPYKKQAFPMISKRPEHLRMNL

[11] = target: Serine/threonine-protein kinase PAK 1 (Homo sapiens, UniProt Q13153); test: Inhibition of PAK1
Chain of Serine/threonine-protein kinase PAK 1 (Q13153 whole entry): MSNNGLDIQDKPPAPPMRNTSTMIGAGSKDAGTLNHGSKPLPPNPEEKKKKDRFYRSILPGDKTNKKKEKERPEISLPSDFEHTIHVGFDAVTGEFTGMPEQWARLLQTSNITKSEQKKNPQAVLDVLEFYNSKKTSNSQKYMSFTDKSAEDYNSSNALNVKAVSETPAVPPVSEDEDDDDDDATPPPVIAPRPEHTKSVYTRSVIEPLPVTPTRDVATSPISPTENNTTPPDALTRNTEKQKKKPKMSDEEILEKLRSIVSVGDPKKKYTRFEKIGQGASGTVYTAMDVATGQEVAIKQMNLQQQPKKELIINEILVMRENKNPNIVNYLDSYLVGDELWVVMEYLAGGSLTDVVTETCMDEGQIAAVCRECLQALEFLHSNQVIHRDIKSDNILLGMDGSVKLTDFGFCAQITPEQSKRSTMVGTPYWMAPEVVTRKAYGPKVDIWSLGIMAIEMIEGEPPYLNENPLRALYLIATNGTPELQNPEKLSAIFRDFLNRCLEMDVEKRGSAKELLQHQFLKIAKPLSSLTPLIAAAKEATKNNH

Cytochrome P450 2D6 = Cytochrome P450 2D6 (Homo sapiens, UniProt P10635); test: Inhibition of CYP2D6; type: ADME
Chain of Cytochrome P450 2D6 (P10635 whole entry): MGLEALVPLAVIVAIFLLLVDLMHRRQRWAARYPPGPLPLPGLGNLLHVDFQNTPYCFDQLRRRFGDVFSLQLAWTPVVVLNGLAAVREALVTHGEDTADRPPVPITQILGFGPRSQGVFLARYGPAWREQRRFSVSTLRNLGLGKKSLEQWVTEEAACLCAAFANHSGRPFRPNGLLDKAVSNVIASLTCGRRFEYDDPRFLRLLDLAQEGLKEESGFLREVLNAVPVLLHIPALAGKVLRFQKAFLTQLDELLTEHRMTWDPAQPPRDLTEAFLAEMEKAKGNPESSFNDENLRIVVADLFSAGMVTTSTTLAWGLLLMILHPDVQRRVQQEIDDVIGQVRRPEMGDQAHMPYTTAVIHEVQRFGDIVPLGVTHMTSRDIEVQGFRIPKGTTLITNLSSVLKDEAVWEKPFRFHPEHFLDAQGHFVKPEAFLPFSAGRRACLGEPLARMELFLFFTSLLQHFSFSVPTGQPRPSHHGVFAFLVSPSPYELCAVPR

Cytochrome P450 1A2 = target: T1, Cytochrome P450 1A2 (Homo sapiens, UniProt P05177); test: Inhibition of CYP1A2; type: ADME
T1 sequence (P05177 whole entry): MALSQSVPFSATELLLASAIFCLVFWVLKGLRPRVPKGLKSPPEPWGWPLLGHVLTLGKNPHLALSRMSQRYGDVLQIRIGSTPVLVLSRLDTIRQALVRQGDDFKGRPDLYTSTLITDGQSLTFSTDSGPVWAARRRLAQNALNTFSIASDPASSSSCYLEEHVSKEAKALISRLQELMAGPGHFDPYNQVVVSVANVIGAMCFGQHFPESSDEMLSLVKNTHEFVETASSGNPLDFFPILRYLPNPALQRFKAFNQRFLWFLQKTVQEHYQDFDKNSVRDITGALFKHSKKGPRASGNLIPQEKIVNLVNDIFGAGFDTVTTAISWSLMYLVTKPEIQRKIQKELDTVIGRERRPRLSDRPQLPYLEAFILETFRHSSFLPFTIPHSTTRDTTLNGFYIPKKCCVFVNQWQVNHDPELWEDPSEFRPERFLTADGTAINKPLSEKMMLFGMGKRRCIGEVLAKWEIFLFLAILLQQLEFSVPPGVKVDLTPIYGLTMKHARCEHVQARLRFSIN

[12] = Inhibition of RSK
Cytochrome P450 2C19 = Cytochrome P450 2C19 (Homo sapiens, UniProt P33261); test: Inhibition of CYP2C19; type: ADME
Chain of Cytochrome P450 2C19 (P33261 whole entry): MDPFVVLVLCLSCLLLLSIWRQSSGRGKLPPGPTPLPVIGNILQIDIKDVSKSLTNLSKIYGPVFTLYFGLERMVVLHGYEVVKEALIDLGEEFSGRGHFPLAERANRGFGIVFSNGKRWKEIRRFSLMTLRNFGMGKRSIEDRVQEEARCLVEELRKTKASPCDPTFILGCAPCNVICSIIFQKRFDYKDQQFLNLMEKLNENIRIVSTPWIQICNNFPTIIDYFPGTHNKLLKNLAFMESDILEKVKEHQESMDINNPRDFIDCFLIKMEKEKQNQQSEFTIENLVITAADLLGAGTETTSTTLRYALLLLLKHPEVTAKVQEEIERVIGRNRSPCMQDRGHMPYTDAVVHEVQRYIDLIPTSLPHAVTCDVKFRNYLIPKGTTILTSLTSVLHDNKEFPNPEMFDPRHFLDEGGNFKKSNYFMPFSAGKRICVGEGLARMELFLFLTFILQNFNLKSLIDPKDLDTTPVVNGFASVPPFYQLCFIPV

[13] = target: Rho-associated protein kinase 1 (Homo sapiens, UniProt Q13464); test: Inhibition of ROCK1
[14] = Inhibition of PKA

Row | SMILES | IC50 (Cytochrome P450 3A4) [nM] | IC50 [1] [nM] | solubility [2] [µM] | fraction unbound [3] | IC50 [5] [nM] | IC50 [9] [nM] | IC50 (BT-474) [nM] | IC50 (HFF) [nM] | IC50 (LNCaP) [nM] | further results
1 | Cc1n[nH]c2ccc(-c3cc(OC[C@@H](N)Cc4c[nH]c5ccccc45)cnc3-c3ccoc3)nc12 | 100 | 12 | 225 (≈ 105 µg/mL) | 0.069 |  |  | 2100 | 30000 | 830 | 
2 | Cc1n[nH]c2ncc(-c3cc(OC[C@@H](N)Cc4c[nH]c5ccccc45)cnc3-c3ccoc3)nc12 | 400 | 2 | 200 (≈ 93.1 µg/mL) | 0.091 | 39 | 10 | 370 | 14300 | 96 | inhibition in vivo at 50 mg/kg (Mus musculus [4]): 80%; Activity (Mus musculus [6]): inactive; Drug uptake [7]: 3798 ng/mL; Activity (Mus musculus [8]): inactive
3 | Cc1[nH]nc2ccc(-c3cc(OC[C@@H](N)Cc4c[nH]c5ccccc45)cnc3-c3ccoc3)cc12 | 50 | 1 | 52 (≈ 24.1 µg/mL) | 0.041 | 12 | 1 | 340 | 5500 | 190 | IC50 [10]: 7 nM; IC50 [11]: 31 nM; IC50 (Cytochrome P450 2D6): 5000 nM; IC50 (Cytochrome P450 1A2): 50000 nM; IC50 [12]: 25 nM; IC50 (Cytochrome P450 2C19): 2000 nM; IC50 [13]: 1580 nM; IC50 [14]: 1 nM
4 | Cc1n[nH]c2cnc(-c3cc(OC[C@@H](N)Cc4c[nH]c5ccccc45)cnc3-c3ccoc3)nc12 | 1300 | 1 | 205 (≈ 95.4 µg/mL) | 0.155 | 31 | 15 | 640 | 30000 | 540 | 

Further lines, with some results ahead:

Row | IC50 (Cytochrome P450 3A4) [nM] | IC50 [1] [nM] | solubility [2] [µM] | fraction unbound [3] | IC50 [5] [nM] | IC50 [9] [nM] | SMILES | IC50 (BT-474) [nM] | IC50 (HFF) [nM] | IC50 (LNCaP) [nM] | further results
5 | 16 | 1 |  | 0.057 | 6 | 1 | Cc1n[nH]c2cnc(-c3cc(OC[C@@H](N)Cc4c[nH]c5ccccc45)cnc3-c3ccoc3)cc12 | 750 | 6500 | 230 | 
6 | 200 | 1 | 108 (≈ 50.2 µg/mL) | 0.047 |  |  | Cc1n[nH]c2ncc(-c3cc(OC[C@@H](N)Cc4c[nH]c5ccccc45)cnc3-c3ccoc3)cc12 | 300 | 6600 | 85 | 
